Patent US6548494B1, “Tricyclic inhibitors of poly(ADP-ribose) polymerases” (Agouron Pharmaceuticals, Inc., priority 1999, dated 2003)
“And” between values parts separate entries of the source, which are not always exact repeats. Equal values may be shown once.

What was measured:
A549 cells = assay: Cytotoxicity potentiation assay; type: cell-based; conditions: test compound 0.4 μM, ratio of IC50 of topotecan alone to IC50 of topotecan with test compound
Method: A549 cells (ATCC, Rockville, Md.) were seeded into 96-well cell culture plates (Falcon brand, Fisher Scientific, Pittsburgh, Pa.) 16 to 24 hours before experimental manipulation. Cells were then treated with a test compound (or a combination of test compounds where indicated) each at a concentration of 0.4 μM for either 3 days or 5 days. At the end of treatments, relative cell number was determined either by MTT assay or SRB assay. For the MTT assay, 0.2 μg/μl of MTT (3-(4,5-dimethylthiazol-2-yl)-2,5-diphenyltetrazolium bromide) (Sigma Chemical Co., St. Louis, Mo.) was added to each well of a plate, and the plate was incubated in a cell-culture incubator for 4 hours. Metabolized MTT in each well was solubilized in 150 μl of DMSO (Sigma Chemical Co.) with shaking and quantified with a Wallac 1420 Victor plate reader (EG&G Wallac, Gaithersburg, Md.) at 540 nm. For the SRB assay, cells were fixed with 10% trichloroacetic acid (Sigma Chemical Co) for an hour at 4° C. After extensively washing, fixed cells were stained for 30 minutes with 0.4% sulforhodamine B (SRB, Sigma Chemical Co.) in 1% acetic acid (Sigma Chemical Co). Unbound SRB was washed away with 1% acetic acid. Then the cultures were air-dried, and dye was solubilized with 10 mM unbuffered Tris base (Sigma Chemical Co) with shaking. The bound dye was measured photometrically with the Wallac Victor plate reader at 515 nm. The ratio of the OD (optical density) value of a compound-treated culture to the OD value of a mock-treated culture, expressed in percentage, was used to quantify the cytotoxicity of a compound. […] To quantify the potentiation of the cytotoxicity of topotecan or temozolomide by test compounds, a dimensionless parameter PF50 is used and is defined as the ratio of the IC50 of topotecan or temozolomide alone to the IC50 of topotecan or temozolomide in combination with a test compound. For the compounds of the invention, PF50 values were determined by testing with topotecan.

purified PARP protein = purified PARP protein (Homo sapiens, UniProt P09874); assay: PARP enzyme inhibition assay; type: biochemical; conditions: 20 nM purified PARP (5 nM for tight-binding inhibitors), 500 μM NAD+, 25° C.; several values in one cell = repeat determinations; read-out: Inhibition Constant Ki
Chain of purified PARP protein (P09874 whole entry): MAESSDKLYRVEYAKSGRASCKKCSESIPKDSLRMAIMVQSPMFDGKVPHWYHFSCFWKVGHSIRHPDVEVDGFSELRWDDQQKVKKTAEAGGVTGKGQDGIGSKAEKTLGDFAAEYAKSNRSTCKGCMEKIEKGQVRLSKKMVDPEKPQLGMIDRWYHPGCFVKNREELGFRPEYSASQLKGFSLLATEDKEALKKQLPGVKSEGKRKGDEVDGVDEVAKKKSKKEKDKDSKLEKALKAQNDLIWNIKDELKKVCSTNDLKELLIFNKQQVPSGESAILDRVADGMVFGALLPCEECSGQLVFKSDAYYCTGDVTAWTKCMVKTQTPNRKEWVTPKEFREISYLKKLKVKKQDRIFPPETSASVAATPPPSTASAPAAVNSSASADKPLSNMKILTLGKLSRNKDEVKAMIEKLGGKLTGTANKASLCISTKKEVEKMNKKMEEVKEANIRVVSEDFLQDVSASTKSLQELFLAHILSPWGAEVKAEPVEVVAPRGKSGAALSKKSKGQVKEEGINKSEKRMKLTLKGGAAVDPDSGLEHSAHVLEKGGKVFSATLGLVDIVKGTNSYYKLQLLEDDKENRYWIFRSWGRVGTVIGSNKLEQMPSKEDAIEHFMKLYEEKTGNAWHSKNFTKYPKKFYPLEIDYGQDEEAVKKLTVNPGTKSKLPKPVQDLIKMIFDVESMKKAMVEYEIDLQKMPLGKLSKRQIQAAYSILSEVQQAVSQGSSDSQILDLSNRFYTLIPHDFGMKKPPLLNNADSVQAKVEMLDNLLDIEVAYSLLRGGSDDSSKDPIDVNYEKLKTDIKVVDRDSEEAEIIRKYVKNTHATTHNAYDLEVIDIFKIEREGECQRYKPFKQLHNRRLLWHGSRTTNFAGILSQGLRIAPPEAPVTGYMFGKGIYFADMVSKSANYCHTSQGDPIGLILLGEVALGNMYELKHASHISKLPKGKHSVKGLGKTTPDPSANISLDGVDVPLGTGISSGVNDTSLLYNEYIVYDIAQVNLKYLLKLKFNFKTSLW

CC1C=CC(C)N1Cc1ccc(-c2nc3cccc4c3n2CCNC4=O)cc1 (racemic) [Example 243, 1-[4-(2,5-Dimethyl-2,5-dihydro-pyrrol-1-ylmethyl)-phenyl]-8,9-dihydro-7H-2,7,9a-triaza-benzo[cd]azulen-6-one]
Cytotoxicity Potentiation PF50 (A549 cells): 2.0 | Ki (purified PARP protein): 8.9 nM

O=C1NCCn2c(-c3ccc(F)cc3)nc3cccc1c32 [Example 2, 1-(4-Fluoro-phenyl)-8,9-dihydro-7H-2,7,9a-triaza-benzo[cd]azulen-6-one]
Cytotoxicity Potentiation PF50 (A549 cells): 1.6 | Ki (purified PARP protein): 8 nM and 6 nM

O=C1NCCn2c(-c3ccncc3)nc3cccc1c32 [Example 3, 1-Pyridin-4-yl-8,9-dihydro-7H-2,7,9a-triaza-benzo[cd]azulen-6-one]
melting point: 269 °C (dec.) | Cytotoxicity Potentiation PF50 (A549 cells): 1.4 | Ki (purified PARP protein): 10.9 nM and 12 nM

O=C1NCCn2c(-c3ccc(F)c(F)c3)nc3cccc1c32 [Example 4, 1-(3,4-Difluoro-phenyl)-8,9-dihydro-7H-2,7,9a-triaza-benzo[cd]azulen-6-one]
melting point: 245 to 247 °C | Cytotoxicity Potentiation PF50 (A549 cells): 1.5 | Ki (purified PARP protein): 6.5 nM

O=C1NCCn2c(-c3cccnc3)nc3cccc1c32 [Example 7, 1-Pyridin-3-yl-8,9-dihydro-7H-2,7,9a-triaza-benzo[cd]azulen-6-one]
Cytotoxicity Potentiation PF50 (A549 cells): 1.4 | Ki (purified PARP protein): 5.1 nM

O=C1NCCn2c(-c3ccc4ccccc4c3)nc3cccc1c32 [Example 11, 1-Naphthalen-2-yl-8,9-dihydro-7H-2,7,9a-triaza-benzo[cd]azulen-6-one]
Cytotoxicity Potentiation PF50 (A549 cells): 2.1 | Ki (purified PARP protein): 5.6 nM

S=C1NCCn2c(-c3ccccc3)nc3cccc1c32 [Example 25, 1-Phenyl-8,9-dihydro-7H-2,7,9a-triaza-benzo[cd]azulen-6-thione]
melting point: 224 °C (dec.) | Cytotoxicity Potentiation PF50 (A549 cells): 1.4

O=C1NCCn2c(O)nc3cccc1c32 [Example 26, 8,9-Dihydro-2H 7H-2,7,9a-triaza-benzo[cd]azulen-1,6-dione]
Cytotoxicity Potentiation PF50 (A549 cells): 1.1 | Ki (purified PARP protein): 102 nM

O=C1NCCn2c(-c3ccc(Cl)cc3)c(/C=N/O)c3cccc1c32 [Example 39, 6-(4-Chloro-phenyl)-1-oxo-1,2,3,4-tetrahydro-[1,4]diazepino[6,7,1-hi]indole-7-carboxaldehyde Oxime]
Cytotoxicity Potentiation PF50 (A549 cells): 1

O=C1NCCn2cc(/C=N/O)c3cccc1c32 [Example 46, 1-Oxo-1,2,3,4-tetrahydro-[1,4]diazepino[6,7]-hi]indole-7-carbaldehyde Oxime]
Cytotoxicity Potentiation PF50 (A549 cells): 1.3

Cc1c(-c2ccc(F)cc2)n2c3c(cccc13)C(=O)NCC2 [Example 50, 6-(4-Fluoro-phenyl)-7-methyl-3,4-dihydro-2H-[1,4]diazepino[6,7,1-hi]indol-1-one]
Cytotoxicity Potentiation PF50 (A549 cells): 1.1

CN(C)Cc1ccc(-c2nc3cccc4c3n2CCNC4=O)cc1 [Example 58, 1-(4-Dimethylaminomethyl-phenyl)-8,9-dihydro-7H-2,7,9a-triaza-benzo[cd]azulen-6-one]
Cytotoxicity Potentiation PF50 (A549 cells): 2.0 | Ki (purified PARP protein): 5.8 nM

CN(C)Cc1ccc(-c2cc3cccc4c3n2CCNC4=O)cc1 [Example 82, 6-(4-Dimethylaminomethyl-phenyl)-3,4-dihydro-2H-[1,4]diazepino[6,7,1-hi]indol-1-one]
Cytotoxicity Potentiation PF50 (A549 cells): 1.9 | Ki (purified PARP protein): 6.2 nM and 6.6 nM

O=C1NCCn2c(-c3ccc(F)cc3)c(/C=N/O)c3cccc1c32 [Example 90, 6-(4-Fluoro-phenyl)-1-oxo-1,2,3,4-tetrahydro-[1,4]diazepino[6,7,1-hi]indole-7-carbaldehyde oxime]
Cytotoxicity Potentiation PF50 (A549 cells): 1.2

O=C1NCCn2c(-c3ccc(CN4CC=CC4)cc3)nc3cccc1c32 [Example 171, 1-[4-(2,5-Dihydro-pyrrol-1-ylmethyl)-phenyl]-8,9-dihydro-7H-2,7,9a-triaza-benzo[cd]azulen-6-one]
Cytotoxicity Potentiation PF50 (A549 cells): 2.5 | Ki (purified PARP protein): 4.5 nM

O=C1NCCn2c(-c3ccc(CN4CC=CC4)cc3)nc3cc(F)cc1c32 [Example 177, 1-[4-(2,5-Dihydro-pyrrol-1-ylmethyl)-phenyl]-4-fluoro-8,9-dihydro-7H-2,7,9a-triaza-benzo[cd]azulen-6-one]
Cytotoxicity Potentiation PF50 (A549 cells): 2.5 | Ki (purified PARP protein): 4.1 nM

COc1cccc(CCNCc2ccc(-c3nc4cccc5c4n3CCNC5=O)cc2)c1 [Example 184, 1-(4-{[2-(3-Methoxy-phenyl)-ethylamino]-methyl}-phenyl)-2,7,8,9-tetrahydro-2,7,9a-triaza-benzo[cd]azulen-6-one]
Cytotoxicity Potentiation PF50 (A549 cells): 2.2 | Ki (purified PARP protein): 6 nM

COc1ccc(CCNCc2ccc(-c3nc4cccc5c4n3CCNC5=O)cc2)cc1 [Example 186, 1-(4-{[2-(4-Methoxy-phenyl)-ethylamino]-methyl}-phenyl)-2,7,8,9-tetrahydro-2,7,9a-triaza-benzo[cd]azulen-6-one]
Cytotoxicity Potentiation PF50 (A549 cells): 2.2 | Ki (purified PARP protein): 5.5 nM

O=C1NCCn2c(-c3ccc(CNC4Cc5ccccc5C4)cc3)nc3cccc1c32 [Example 197, 1-[4-(Indan-2-ylaminomethyl)-phenyl]-8,9-dihydro-7H-2,7,9a-triaza-benzo[cd]azulen-6-one]
Cytotoxicity Potentiation PF50 (A549 cells): 2.5 | Ki (purified PARP protein): 2.8 nM and 5.2 nM

CCN(CCc1ccccn1)Cc1ccc(-c2nc3cccc4c3n2CCNC4=O)cc1 [Example 203, 1-(4-{[Ethyl-(2-pyridin-2-yl-ethyl)-amino]-methyl}-phenyl)-8,9-dihydro-7H-2,7,9a-triaza-benzo[cd]azulen-6-one]
Cytotoxicity Potentiation PF50 (A549 cells): 2.0 | Ki (purified PARP protein): 4.6 nM

CN(CCc1cc2ccccc2[nH]1)Cc1ccc(-c2nc3cccc4c3n2CCNC4=O)cc1 [Example 207, 1-[4-({[2-(1H-Indol-2-yl)-ethyl]-methyl-amino}-methyl)-phenyl]-8,9-dihydro-7H-2,7,9a-triaza-benzo[cd]azulen-6-one]
Cytotoxicity Potentiation PF50 (A549 cells): 2.4 | Ki (purified PARP protein): 4.2 nM

O=C1NCCn2c(-c3ccc(CN4CCCC4)cc3)nc3cccc1c32 [Example 210, 1-(4-Pyrrolidin-1-ylmethyl-phenyl)-8,9-dihydro-7H-2,7,9a-triaza-benzo[cd]azulen-6-one]
Cytotoxicity Potentiation PF50 (A549 cells): 2.3 | Ki (purified PARP protein): 5 nM

O=C1NCCn2c(-c3ccc(CN4CCCC4)cc3)nc3cc(F)cc1c32 [Example 211, 4-Fluoro-1-(4-pyrrolidin-1-ylmethyl-phenyl)-8,9-dihydro-7H-2,7,9a-triaza-benzo[cd]azulen-6-one]
Cytotoxicity Potentiation PF50 (A549 cells): 2.3 | Ki (purified PARP protein): 4.5 nM

CC1CCCN1Cc1ccc(-c2nc3cccc4c3n2CCNC4=O)cc1 (stereo not drawn) [Example 212, 1-[4-(2-Methyl-pyrrolidin-1-ylmethyl)-phenyl]-8,9-dihydro-7H-2,7,9a-triaza-benzo[cd]azulen-6-one]
Cytotoxicity Potentiation PF50 (A549 cells): 2.0 | Ki (purified PARP protein): 6.8 nM

C[C@H]1Cn2c(-c3ccc(CN4CC=CC4)cc3)nc3cccc(c32)C(=O)N1 [Example 223, (S)-1-[4-(2,5-Dihydro-pyrrol-1-ylmethyl)-phenyl]-8-methyl-8,9-dihydro-7H-2,7,9a-triaza-benzo[cd]azulen-6-one]
Cytotoxicity Potentiation PF50 (A549 cells): 2.1 | Ki (purified PARP protein): 8.5 nM

C[C@H]1Cn2c(-c3ccc(CN4CCCC4)cc3)nc3cccc(c32)C(=O)N1 [Example 233, (S)-8-Methyl-1-(4-pyrrolidin-1-ylmethyl-phenyl)-8,9-dihydro-7H-2,7,9a-triaza-benzo[cd]azulen-6-one]
Cytotoxicity Potentiation PF50 (A549 cells): 2.2 | Ki (purified PARP protein): 8 nM

CC(c1ccc(-c2nc3cccc4c3n2CCNC4=O)cc1)N(C)C (stereo not drawn) [Example 245, 1-[4-(1-Dimethylamino-ethyl)-phenyl]-8,9-dihydro-7H-2,7,9a-triaza-benzo[cd]azulen-6-one]
Cytotoxicity Potentiation PF50 (A549 cells): 2.1 | Ki (purified PARP protein): 5.8 nM

CC(c1ccc(-c2nc3cccc4c3n2CCNC4=O)cc1)N1CCCC1 (stereo not drawn) [Example 246, 1-[4-(1-Pyrrolidin-1-yl-ethyl)-phenyl]-8,9-dihydro-7H-2,7,9a-triaza-benzo[cd]azulen-6-one]
Cytotoxicity Potentiation PF50 (A549 cells): 2.3 | Ki (purified PARP protein): 3.3 nM
